Source: patent US6737383B1, “Herbicidal oxadiazolidines” (priority 1999, dated 2004)

Columns and labels:
pigweed = assay: Test B pre/postemergence pigweed; format: in vivo, Amaranthus retroflexus; conditions: for Plant response rating, Redroot pigweed: scale of 0 to 10 where 0 is no effect and 10 is complete control
Summary of the method: (§1)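 Test chemicals in a non-phytotoxic solvent mixture with surfactant were sprayed preemergence onto planted seeds and postemergence onto plants 2 to 18 cm tall (1- to 4-leaf stage). After twelve to sixteen days in a greenhouse, injury was visually rated against untreated controls from 0 (no effect) to 10 (complete control).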

smallflower flatsedge = assay: Test B flood test smallflower flatsedge; format: in vivo, Cyperus difformis
Summary of the method: (§2)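 Plants were grown to the 2-leaf stage before treatment with test chemical, then held in a greenhouse for twelve to sixteen days. Injury was visually rated against untreated controls on a 0–10 scale, where 0 is no effect and 10 is complete control.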

rice = assay: Test B flood test rice; format: in vivo, Oryza sativa
Summary of the method: as §2

bamyardgrass = assay: Test B flood test barnyardgrass; format: in vivo, Echinochloa crus-galli
Summary of the method: as §2

rape = assay: Test B pre/postemergence rape; format: in vivo, Brassica napus; conditions: for Plant response rating, Rape: scale of 0 to 10 where 0 is no effect and 10 is complete control
Summary of the method: as §1

duck salad = assay: Test B flood test duck salad; format: in vivo, Heteranthera limosa
Summary of the method: as §2

sugar beet = assay: Test B pre/postemergence sugar beet; format: in vivo, Beta vulgaris; conditions: for Plant response rating, Sugarbeets: scale of 0 to 10 where 0 is no effect and 10 is complete control
Summary of the method: as §1

surinam grass = assay: Test B pre/postemergence surinam grass; format: in vivo, Brachiaria decumbens
Summary of the method: as §1

cocklebur = assay: Test B pre/postemergence cocklebur; format: in vivo, Xanthium strumarium
Summary of the method: as §1

soybean = assay: Test B pre/postemergence soybean; format: in vivo, Glycine max; conditions: for Plant response rating, Soybean: scale of 0 to 10 where 0 is no effect and 10 is complete control
Summary of the method: as §1

wheat = assay: Test B pre/postemergence wheat; format: in vivo, Triticum aestivum; conditions: for Plant response rating, Wheat: scale of 0 to 10 where 0 is no effect and 10 is complete control
Summary of the method: as §1

blackgrass = assay: Test B pre/postemergence blackgrass; format: in vivo, Alopecurus myosuroides
Summary of the method: as §1

purple nutsedge = assay: Test B pre/postemergence purple nutsedge; format: in vivo, Cyperus rotundus; conditions: for Plant response rating, Nutsedge: scale of 0 to 10 where 0 is no effect and 10 is complete control
Summary of the method: as §1

wild oat = assay: Test B pre/postemergence wild oat; format: in vivo, Avena fatua; conditions: for Plant response rating, Wild oats: scale of 0 to 10 where 0 is no effect and 10 is complete control
Summary of the method: as §1

giant foxtail = assay: Test B pre/postemergence giant foxtail; format: in vivo, Setaria faberii
Summary of the method: as §1

crabgrass = assay: Test B pre/postemergence crabgrass; format: in vivo, Digitaria sanguinalis
Summary of the method: as §1

morningglory = assay: Test B pre/postemergence morningglory; format: in vivo, Ipomoea hederacea; conditions: for Plant response rating, Morningglory: scale of 0 to 10 where 0 is no effect and 10 is complete control
Summary of the method: as §1

corn = assay: Test B pre/postemergence corn; format: in vivo, Zea mays
Summary of the method: as §1

velvetleaf = assay: Test B pre/postemergence velvetleaf; format: in vivo, Abutilon theophrasti; conditions: for Plant response rating, Velvetleaf: scale of 0 to 10 where 0 is no effect and 10 is complete control
Summary of the method: as §1

[1] = Postemergence, Rate 250 g/ha, scale 0 to 10
[2] = Preemergence, Rate 250 g/ha, scale 0 to 10, 0 is no effect, 10 is complete control
[3] = Preemergence, Rate 500 g/ha, scale 0 to 10, 0 is no effect, 10 is complete control
[4] = Rate 62 g/ha, Postemergence, scale 0 to 10 (0 no effect, 10 complete control)
[5] = Rate 125 g/ha, Postemergence, scale 0 to 10, 0 is no effect, 10 is complete control
[6] = Rate 62 g/ha, flood test species, Pre-emergence, visual evaluation after twelve to sixteen days
[7] = Rate 125 g/ha, under heading Pre-emergence, flood test species, visual evaluation after twelve to sixteen days
[8] = Rate 250 g/ha, Pre-emergence (flood test species), scale 0 to 10, 0 is no effect, 10 is complete control
[9] = Rate 500 g/ha, Pre-emergence, flood test species, scale 0 to 10 (0 no effect, 10 complete control)
[10] = Postemergence, Rate 500 g/ha, scale of 0 to 10 where 0 is no effect and 10 is complete control
[11] = Preemergence, Rate 62 g/ha, scale of 0 to 10 where 0 is no effect and 10 is complete control
[12] = Preemergence, Rate 125 g/ha, scale of 0 to 10 where 0 is no effect and 10 is complete control

`COC(CCl)n1c(=O)on(C(=O)N(c2ccc(Cl)cc2)C(C)C)c1=O` (stereo not shown) [Compound 458] was tested, and the “Redroot pigweed plant response rating” value (pigweed; [1]) was 0, the “Plant response rating, Redroot pigweed” value (pigweed; Preemergence, Rate 62 g/ha) was 0 and the “Plant response rating, Redroot pigweed” value (pigweed; Preemergence, Rate 125 g/ha) was 3. The “Redroot pigweed plant response rating” value (pigweed; [2]) was 6, the “Redroot pigweed plant response rating” value (pigweed; [3]) was 8 and the “Redroot pigweed plant response rating” value (pigweed; [4]) was 0. For the same molecule, the “Redroot pigweed plant response rating” value (pigweed; [5]) was 0, the “Plant response rating, S. Flatsedge (0 to 10 scale, 0 is no effect, 10 is complete control)” value (smallflower flatsedge; [6]) was 0 and the “S. Flatsedge plant response rating (0 to 10 scale, 0 is no effect, 10 is complete control)” value (smallflower flatsedge; [7]) was 0. The “S. Flatsedge plant response rating” value (smallflower flatsedge; [8]) was 0, the “S. Flatsedge plant response rating” value (smallflower flatsedge; [9]) was 0 and the “Plant response rating, Rice (0 to 10 scale, 0 is no effect, 10 is complete control)” value (rice; [6]) was 0. The “Rice plant response rating (0 to 10 scale, 0 is no effect, 10 is complete control)” value (rice; [7]) was 0, the “Rice plant response rating” value (rice; [8]) was 0 and the “Rice plant response rating” value (rice; [9]) was 0. The “Plant response rating, Barnyardgrass (0 to 10 scale, 0 is no effect, 10 is complete control)” value (bamyardgrass; [6]) was 0, the “Barnyardgrass plant response rating (0 to 10 scale, 0 is no effect, 10 is complete control)” value (bamyardgrass; [7]) was 0 and the “Barnyardgrass plant response rating” value (bamyardgrass; [8]) was 0. For the same molecule, the “Barnyardgrass plant response rating” value (bamyardgrass; [9]) was 0, the “Rape plant response rating” value (rape; [1]) was 0 and the “Plant response rating, Rape” value (rape; Preemergence, Rate 62 g/ha) was 0. The “Plant response rating, Rape” value (rape; Preemergence, Rate 125 g/ha) was 0, the “Rape plant response rating” value (rape; [2]) was 3 and the “Rape plant response rating” value (rape; [3]) was 4. The “Rape plant response rating” value (rape; [4]) was 0, the “Rape plant response rating” value (rape; [5]) was 0 and the “Plant response rating, Ducksalad (0 to 10 scale, 0 is no effect, 10 is complete control)” value (duck salad; [6]) was 0. For the same molecule, the “Ducksalad plant response rating (0 to 10 scale, 0 is no effect, 10 is complete control)” value (duck salad; [7]) was 0, the “Ducksalad plant response rating” value (duck salad; [8]) was 0 and the “Ducksalad plant response rating” value (duck salad; [9]) was 0. For the same molecule, the “Sugarbeets plant response rating” value (sugar beet; [1]) was 0, the “Plant response rating, Sugarbeets” value (sugar beet; Preemergence, Rate 62 g/ha) was 0 and the “Plant response rating, Sugarbeets” value (sugar beet; Preemergence, Rate 125 g/ha) was 0. The “Sugarbeets plant response rating” value (sugar beet; [2]) was 2, the “Sugarbeets plant response rating” value (sugar beet; [3]) was 8 and the “Sugarbeets plant response rating” value (sugar beet; [4]) was 0. The “Sugarbeets plant response rating” value (sugar beet; [5]) was 0, the “B. signalgrass plant response rating” value (surinam grass; Postemergence, Rate 250 g/ha, scale 0 to 10, 0 no effect, 10 complete control) was 0 and the “B. signalgrass plant response rating” value (surinam grass; [10]) was 3. For the same molecule, the “Plant response rating, B. signalgrass” value (surinam grass; [11]) was 4, the “Plant response rating, B. signalgrass” value (surinam grass; [12]) was 4 and the “B. signalgrass plant response rating” value (surinam grass; [2]) was 4. The “B. signalgrass plant response rating” value (surinam grass; [3]) was 4, the “B. signalgrass plant response rating” value (surinam grass; [4]) was 0 and the “B. signalgrass plant response rating” value (surinam grass; [5]) was 0. The “Cocklebur plant response rating” value (cocklebur; [1]) was 0, the “Cocklebur plant response rating” value (cocklebur; [10]) was 2 and the “Plant response rating, Cocklebur” value (cocklebur; [11]) was 0. For the same molecule, the “Plant response rating, Cocklebur” value (cocklebur; [12]) was 0, the “Cocklebur plant response rating” value (cocklebur; [2]) was 0 and the “Cocklebur plant response rating” value (cocklebur; [3]) was 0. For the same molecule, the “Cocklebur plant response rating” value (cocklebur; [4]) was 0, the “Cocklebur plant response rating” value (cocklebur; [5]) was 0 and the “Soybean plant response rating” value (soybean; [1]) was 2. The “Plant response rating, Soybean” value (soybean; Preemergence, Rate 62 g/ha) was 0, the “Plant response rating, Soybean” value (soybean; Preemergence, Rate 125 g/ha) was 0 and the “Soybean plant response rating” value (soybean; [2]) was 0. The “Soybean plant response rating” value (soybean; [3]) was 2, the “Soybean plant response rating” value (soybean; [4]) was 0 and the “Soybean plant response rating” value (soybean; [5]) was 1. For the same molecule, the “Wheat plant response rating” value (wheat; [1]) was 2, the “Plant response rating, Wheat” value (wheat; Preemergence, Rate 62 g/ha) was 0 and the “Plant response rating, Wheat” value (wheat; Preemergence, Rate 125 g/ha) was 0. The “Wheat plant response rating” value (wheat; [2]) was 0, the “Wheat plant response rating” value (wheat; [3]) was 2 and the “Wheat plant response rating” value (wheat; [4]) was 0. The “Wheat plant response rating” value (wheat; [5]) was 0, the “Blackgrass plant response rating” value (blackgrass; [1]) was 8 and the “Blackgrass plant response rating” value (blackgrass; [10]) was 8. For the same molecule, the “Plant response rating, Blackgrass” value (blackgrass; [11]) was 6, the “Plant response rating, Blackgrass” value (blackgrass; [12]) was 8 and the “Blackgrass plant response rating” value (blackgrass; [2]) was 8. For the same molecule, the “Blackgrass plant response rating” value (blackgrass; [3]) was 9, the “Blackgrass plant response rating” value (blackgrass; [4]) was 0 and the “Blackgrass plant response rating” value (blackgrass; [5]) was 3. The “Nutsedge plant response rating” value (purple nutsedge; [1]) was 0, the “Plant response rating, Nutsedge” value (purple nutsedge; Preemergence, Rate 62 g/ha) was 0 and the “Plant response rating, Nutsedge” value (purple nutsedge; Preemergence, Rate 125 g/ha) was 0. For the same molecule, the “Nutsedge plant response rating” value (purple nutsedge; [2]) was 0, the “Nutsedge plant response rating” value (purple nutsedge; [3]) was 0 and the “Nutsedge plant response rating” value (purple nutsedge; [4]) was 0. The “Nutsedge plant response rating” value (purple nutsedge; [5]) was 0, the “Wild oats plant response rating” value (wild oat; [1]) was 2 and the “Plant response rating, Wild oats” value (wild oat; Preemergence, Rate 62 g/ha) was 0. For the same molecule, the “Plant response rating, Wild oats” value (wild oat; Preemergence, Rate 125 g/ha) was 2, the “Wild oats plant response rating” value (wild oat; [2]) was 3 and the “Wild oats plant response rating” value (wild oat; [3]) was 10. The “Wild oats plant response rating” value (wild oat; [4]) was 0, the “Wild oats plant response rating” value (wild oat; [5]) was 0 and the “Giant foxtail plant response rating” value (giant foxtail; [1]) was 9. For the same molecule, the “Giant foxtail plant response rating” value (giant foxtail; [10]) was 9, the “Plant response rating, Giant foxtail” value (giant foxtail; [11]) was 9 and the “Plant response rating, Giant foxtail” value (giant foxtail; [12]) was 9. The “Giant foxtail plant response rating” value (giant foxtail; [2]) was 10, the “Giant foxtail plant response rating” value (giant foxtail; [3]) was 10 and the “Giant foxtail plant response rating” value (giant foxtail; [4]) was 7. For the same molecule, the “Giant foxtail plant response rating” value (giant foxtail; [5]) was 9, the “Crabgrass plant response rating” value (crabgrass; [1]) was 8 and the “Crabgrass plant response rating” value (crabgrass; [10]) was 9. The “Plant response rating, Crabgrass” value (crabgrass; [11]) was 6, the “Plant response rating, Crabgrass” value (crabgrass; [12]) was 6 and the “Crabgrass plant response rating” value (crabgrass; [2]) was 9. The “Crabgrass plant response rating” value (crabgrass; [3]) was 10, the “Crabgrass plant response rating” value (crabgrass; [4]) was 2 and the “Crabgrass plant response rating” value (crabgrass; [5]) was 8. For the same molecule, the “Morningglory plant response rating” value (morningglory; [1]) was 3, the “Plant response rating, Morningglory” value (morningglory; Preemergence, Rate 62 g/ha) was 0 and the “Plant response rating, Morningglory” value (morningglory; Preemergence, Rate 125 g/ha) was 0. The “Morningglory plant response rating” value (morningglory; [2]) was 0, the “Morningglory plant response rating” value (morningglory; [3]) was 0 and the “Morningglory plant response rating” value (morningglory; [4]) was 0. The “Morningglory plant response rating” value (morningglory; [5]) was 0, the “Corn plant response rating” value (corn; [1]) was 2 and the “Corn plant response rating” value (corn; [10]) was 2. For the same molecule, the “Plant response rating, Corn” value (corn; [11]) was 0, the “Plant response rating, Corn” value (corn; [12]) was 0 and the “Corn plant response rating” value (corn; [2]) was 0. The “Corn plant response rating” value (corn; [3]) was 3, the “Corn plant response rating” value (corn; [4]) was 0 and the “Corn plant response rating” value (corn; [5]) was 0. For the same molecule, the “Velvetleaf plant response rating” value (velvetleaf; [1]) was 0, the “Plant response rating, Velvetleaf” value (velvetleaf; Preemergence, Rate 62 g/ha) was 0 and the “Plant response rating, Velvetleaf” value (velvetleaf; Preemergence, Rate 125 g/ha) was 0. The “Velvetleaf plant response rating” value (velvetleaf; [2]) was 2, the “Velvetleaf plant response rating” value (velvetleaf; [3]) was 6 and the “Velvetleaf plant response rating” value (velvetleaf; [4]) was 0. The “Velvetleaf plant response rating” value (velvetleaf; [5]) was 0.
